Key:
Type in all cases: biochemical
c-Met kinase = target: T1, c-Met kinase (Homo sapiens, UniProt P08581); experiment: c-Met kinase assay (33P incorporation into Poly(Glu-Tyr)); conditions: 500 nM test compound
T1 construct: recombinant N-terminal 6×His-tagged c-Met kinase domain construct expressed from baculovirus; 6xHis (N); made in house
How it was run: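 Single-concentration test (500 nM compound) at 30° C for 30 min, pH 7.0 MOPS buffer with 100 μM ATP and [33P]-γ-ATP. Enzyme was baculovirus-expressed 6×His c-Met kinase domain (5 ng), substrate Poly(Glu-Tyr) 4:1. Inhibition percentage derived from filter-bound counts relative to DMSO control.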

Aurora A kinase = target: T2, Aurora A kinase (Homo sapiens, UniProt O14965); experiment: Aurora A kinase assay ([γ-33P]ATP, CHOCKtide substrate); conditions: 1.0 μM test compound
T2 construct: purchased Upstate
T2 sequence (O14965 1-403): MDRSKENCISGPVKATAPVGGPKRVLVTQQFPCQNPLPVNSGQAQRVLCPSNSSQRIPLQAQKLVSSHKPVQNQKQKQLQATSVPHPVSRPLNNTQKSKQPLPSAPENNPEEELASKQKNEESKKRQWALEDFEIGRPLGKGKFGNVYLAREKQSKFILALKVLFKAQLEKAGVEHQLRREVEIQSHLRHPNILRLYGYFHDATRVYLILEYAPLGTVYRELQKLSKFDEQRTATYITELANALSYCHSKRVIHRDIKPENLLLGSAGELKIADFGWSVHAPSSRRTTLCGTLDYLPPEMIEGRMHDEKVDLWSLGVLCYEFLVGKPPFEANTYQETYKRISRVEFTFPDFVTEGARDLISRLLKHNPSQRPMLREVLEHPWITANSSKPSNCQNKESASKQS
How it was run: (§1)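 Radiometric filter-binding format: 33P incorporation into CHOCKtide counted after acid stop and filtration. Reactions ran 30 min at 33 °C, Aurora A with 10 μM ATP, Aurora B with 40 μM ATP. IC50 taken as concentration giving half-maximal kinase inhibition.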

Flt3 kinase = target: T3, Flt3 kinase (Homo sapiens, UniProt P36888); experiment: Flt3 kinase assay (33P incorporation into Poly(Glu-Tyr)); conditions: 100 nM test compound; read-out: Inhibition at 100 nM (%) Flt-3
T3 construct: recombinant N-terminal 6×His-tagged Flt3 kinase domain construct expressed from baculovirus; 6xHis (N); made in house
T3 sequence (P36888 610-943 limits assumed): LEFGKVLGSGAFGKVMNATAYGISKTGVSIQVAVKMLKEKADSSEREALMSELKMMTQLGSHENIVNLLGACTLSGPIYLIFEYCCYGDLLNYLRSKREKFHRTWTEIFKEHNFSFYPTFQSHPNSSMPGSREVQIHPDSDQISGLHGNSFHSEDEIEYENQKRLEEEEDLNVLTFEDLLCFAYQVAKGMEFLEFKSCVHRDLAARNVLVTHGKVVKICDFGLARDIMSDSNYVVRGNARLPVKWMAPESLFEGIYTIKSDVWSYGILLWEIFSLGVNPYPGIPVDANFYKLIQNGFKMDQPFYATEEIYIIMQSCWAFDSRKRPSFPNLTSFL
How it was run: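 Baculovirus-expressed His-tagged Flt3 kinase domain (5 ng) with Poly(Glu-Tyr) 4:1 substrate, 100 μM ATP plus [33P]-γ-ATP, in MOPS pH 7.0 buffer, 30 min at 30 °C. Compound tested at a single 100 nM concentration; filter-bound radioactivity counted and percent inhibition calculated relative to DMSO control.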

Aurora B kinase = target: T4, Aurora B kinase (Homo sapiens, UniProt Q96GD4); experiment: Aurora B kinase assay ([γ-33P]ATP, CHOCKtide substrate); conditions: 1.0 μM test compound
T4 construct: purchased Cell signaling
How it was run: as §1

T1 sequence (P08581 1078-1345 limits assumed): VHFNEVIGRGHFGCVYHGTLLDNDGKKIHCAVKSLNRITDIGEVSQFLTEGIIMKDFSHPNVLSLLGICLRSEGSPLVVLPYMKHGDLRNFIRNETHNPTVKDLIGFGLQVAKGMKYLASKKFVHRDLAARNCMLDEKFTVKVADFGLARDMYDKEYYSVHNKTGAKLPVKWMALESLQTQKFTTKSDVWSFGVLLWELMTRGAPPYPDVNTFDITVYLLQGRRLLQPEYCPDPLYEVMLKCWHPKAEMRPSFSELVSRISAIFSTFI
T4 sequence (Q96GD4 whole entry): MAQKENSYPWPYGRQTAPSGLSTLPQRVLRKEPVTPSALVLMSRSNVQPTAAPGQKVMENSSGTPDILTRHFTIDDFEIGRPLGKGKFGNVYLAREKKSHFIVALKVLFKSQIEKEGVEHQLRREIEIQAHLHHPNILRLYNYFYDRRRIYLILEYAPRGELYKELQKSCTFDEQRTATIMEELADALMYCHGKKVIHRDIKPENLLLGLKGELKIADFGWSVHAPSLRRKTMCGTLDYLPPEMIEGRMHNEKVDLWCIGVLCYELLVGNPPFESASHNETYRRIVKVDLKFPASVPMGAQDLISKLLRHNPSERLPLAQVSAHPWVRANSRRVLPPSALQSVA

Row | inhibition at 0.5 µM (c-Met kinase) | inhibition at 1 µM (Aurora A kinase) | inhibition at 0.1 µM (Flt3 kinase) | inhibition at 1 µM (Aurora B kinase) | SMILES
1 | -1.2% | 9.8% | 10.7% | -23% | CCOC(=O)CCc1c(/C=C2\C(=O)Nc3ccc(NC(=O)c4ccc(OC)cc4)cc32)[nH]c2c1C(=O)CCC2 [DCB-70141, (Z)-ethyl 3-(2-((5-(4-methoxybenzamido)-2-oxoindolin-3-ylidene)methyl)-4-oxo-4,5,6,7-tetrahydro-1H-indol-3-yl)propanoate]
2 | -8.2% | 31.8% | 6% | 9.1% | COc1ccc(C(=O)Nc2ccc3c(c2)/C(=C/c2[nH]c4c(c2CCC(=O)O)C(=O)CCC4)C(=O)N3)cc1 [DCB-70143, (Z)-3-(2-((5-(4-methoxybenzamido)-2-oxoindolin-3-ylidene)methyl)-4-oxo-4,5,6,7-tetrahydro-1H-indol-3-yl)propanoic acid]
3 | 74.9% | 80.7% | 9.7% | 30.2% | CN(c1cccc(Cl)c1)S(=O)(=O)c1ccc2c(c1)/C(=C/c1[nH]c3c(c1CCC(=O)O)C(=O)CCCC3)C(=O)N2 [DCB-70148, (Z)-3-(2-((5-(N-(3-chlorophenyl)-N-methylsulfamoyl)-2-oxoindolin-3-ylidene)methyl)-4-oxo-1,4,5,6,7,8-hexahydrocyclohepta[b]pyrrol-3-yl)propanoic acid]
4 | 8.4% | 77.5% | 7.3% | 18.7% | O=C(O)CCc1c(/C=C2\C(=O)Nc3ccc(S(=O)(=O)Nc4ccc(F)c(Cl)c4)cc32)[nH]c2c1C(=O)CCCC2 [DCB-70149, (Z)-3-(2-((5-(N-(3-chloro-4-fluorophenyl)sulfamoyl)-2-oxoindolin-3-ylidene)methyl)-4-oxo-1,4,5,6,7,8-hexahydrocyclohepta[b]pyrrol-3-yl)propanoic acid]

Reference: patent US7897602B2, “Indolinone compounds as kinase inhibitors” (Development Center for Biotechnology, priority 2009, dated 2011)
